Source: US20230295212A1 (ROME Therapeutics, Inc., priority 2022, published 2023)
Counter-ions that a name gives are not always drawn.

Experiments:
[1] = molecular target: T1, LINE1 reverse transcriptase (recombinant MBP-tagged LINE1 protein (238-1061)) (Homo sapiens, UniProt O00370); assay: Homogeneous time-resolved fluorescence (HTRF) LINE1 RT assay; format: biochemical; details: triphosphate analogs, LINE1 enzyme 64 ng/well, 25° C. 60 minutes
T1 construct: recombinant MBP-tagged LINE1 protein (238-1061); made in house
Method: Exemplary triphosphate analogs were tested for the ability to inhibit LINE1 reverse transcriptase using a homogeneous time-resolved fluorescence (HTRF) assay. Assay procedures and results are described below.
The LINE1 reverse transcriptase homogeneous time-resolved fluorescence (HTRF) assay was performed with recombinant MBP-tagged LINE1 protein (238-1061) (generated and purified according to procedures in Dai L. et al. BMC Biochemistry 2011; 12:18) in a 384-well format. Test compound was serially diluted in DMSO and further diluted in the assay buffer (50 mM Tris-HCl, 50 mM KCl, 10 mM MgCl2, 10 mM DTT, pH 8.1) to achieve a final DMSO concentration of 1%. The serially diluted compound was mixed with 64 ng/well of LINE1 enzyme, 5 nM of pre-annealed template/biotin-primer pair (synthesized at Generay Biotechnology), 10 nM of Fluorescein-12-dCTP fluorescent probe (PerkinElmer), and 1 μM dGTP/dATP/dTTP (ThermoFisher Scientific) in the assay buffer. The template/biotin-primer sequences were as follows:
(§1) After incubating at 25° C. for 60 minutes, the detection reagent (20 mM EDTA with streptavidin-terbium cryptate, Cisbio Bioassay) in the PPI buffer (Cisbio Bioassay) was added, and the mixture was incubated at 25° C. for 30 minutes. At the end of the incubation, fluorescence was read at ex/em=337/485 nm and ex/em=337/520 nm on an Envision 2104 plate reader (PerkinElmer). The fluorescence ratio at 520/485 nm was used for the calculation. […] The IC50 was calculated by fitting the compound dose inhibition curve with a 4-parameter non-linear regression equation.

human DNA polymerase γ = molecular target: T2, human DNA polymerase γ (Homo sapiens, UniProt P54098); assay: Homogeneous time-resolved fluorescence human DNA polymerase γ assay; format: biochemical; details: triphosphates, room temperature 30 minutes
T2 construct: purchased Gentaur
T2 sequence (P54098 1-1239): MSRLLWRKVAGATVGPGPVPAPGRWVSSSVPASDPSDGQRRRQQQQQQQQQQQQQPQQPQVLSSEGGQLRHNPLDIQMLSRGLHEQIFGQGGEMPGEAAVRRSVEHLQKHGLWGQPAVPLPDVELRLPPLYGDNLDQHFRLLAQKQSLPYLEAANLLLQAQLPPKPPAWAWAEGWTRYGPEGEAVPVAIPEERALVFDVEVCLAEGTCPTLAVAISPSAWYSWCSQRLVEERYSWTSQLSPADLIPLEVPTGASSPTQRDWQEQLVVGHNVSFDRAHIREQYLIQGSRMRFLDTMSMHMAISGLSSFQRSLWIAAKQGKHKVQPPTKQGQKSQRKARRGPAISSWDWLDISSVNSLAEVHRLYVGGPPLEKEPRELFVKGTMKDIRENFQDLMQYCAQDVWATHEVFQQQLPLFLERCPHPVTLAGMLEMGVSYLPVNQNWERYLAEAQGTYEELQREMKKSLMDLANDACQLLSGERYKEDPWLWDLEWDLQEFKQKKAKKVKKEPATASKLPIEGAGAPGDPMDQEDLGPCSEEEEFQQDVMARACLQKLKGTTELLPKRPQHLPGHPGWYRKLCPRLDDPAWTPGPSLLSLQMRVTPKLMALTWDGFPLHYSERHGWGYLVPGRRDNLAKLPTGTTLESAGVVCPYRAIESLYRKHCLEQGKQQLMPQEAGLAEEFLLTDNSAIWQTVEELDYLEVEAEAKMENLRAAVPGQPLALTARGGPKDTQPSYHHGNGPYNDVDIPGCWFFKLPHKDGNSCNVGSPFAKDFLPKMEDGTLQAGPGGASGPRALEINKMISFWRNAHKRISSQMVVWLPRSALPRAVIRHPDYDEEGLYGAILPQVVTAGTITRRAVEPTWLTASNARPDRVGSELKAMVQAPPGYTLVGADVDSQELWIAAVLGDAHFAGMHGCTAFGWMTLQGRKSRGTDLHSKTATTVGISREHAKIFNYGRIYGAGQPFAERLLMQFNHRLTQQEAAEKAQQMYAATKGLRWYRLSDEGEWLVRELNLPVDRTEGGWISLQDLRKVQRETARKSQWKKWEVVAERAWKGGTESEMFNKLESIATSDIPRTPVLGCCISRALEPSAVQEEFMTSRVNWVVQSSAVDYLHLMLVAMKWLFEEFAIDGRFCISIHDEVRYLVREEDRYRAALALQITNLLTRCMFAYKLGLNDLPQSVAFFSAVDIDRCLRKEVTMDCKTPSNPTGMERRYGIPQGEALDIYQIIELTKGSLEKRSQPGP
Method: Exemplary compounds were tested for ability to inhibit human DNA polymerase γ using a homogeneous time-resolved fluorescence (HTRF) assay. Off-target inhibition of DNA polymerase γ by NRTIs can result in undesired mitochondrial toxicity. Assay procedures and results are described below.
The human DNA polymerase γ homogeneous time-resolved fluorescence (HTRF) assay was performed with recombinant human DNA polymerase γ protein (Gentaur) in a 384-well format. Test compound was serially diluted in water and further diluted in the assay buffer (28 mM Tris-HCl, 14 mM NaCl, 0.56 mM MgCl2, 0.011% Triton X-100, 0.11 mg/ml BSA, 1.1 mM DTT, pH 8.1). The serially diluted compound was mixed with polymerase γ, 10 nM of pre-annealed template/biotin-primer pair (synthesized at Geneway Biotechnology), 100 nM of Fluorescein-12-dCTP fluorescent probe (PerkinElmer), and 10 μM dGTP/dATP/dTTP (ThermoFisher Scientific) in the assay buffer. The template/biotin-primer sequences were as follows:
as §1, with “room temperature” for “25° C.”, “30” for “60”, “(5” for “(20”, “60” for “30”

IC50 [1] [nM] | IC50 (human DNA polymerase γ) [nM] | SMILES
108 | > 300000 | CC[C@]1(COP(=O)(O)OP(=O)(O)OP(=O)(O)O)O[C@@H](n2ccc(N)nc2=O)C[C@@H]1O [44-TP]
47.5 | ≤ 50000 | Nc1ccn([C@H]2C[C@H](O)[C@@](CCl)(COP(=O)(O)OP(=O)(O)OP(=O)(O)O)O2)c(=O)n1 [Compound 2-TP]
272 | 50000 to 100000 | Nc1nc(=O)n([C@H]2C[C@H](O)[C@@](CCl)(COP(=O)(O)OP(=O)(O)OP(=O)(O)O)O2)cc1F [Compound 14-TP, ((2R,3S,5R)-5-(4-amino-5-fluoro-2-oxopyrimidin-1(2H)-yl)-2-(chloromethyl)-3-hydroxytetrahydrofuran-2-yl)methyl tetrahydrogen triphosphate TEA Salt]
13.7 | 200000 to 300000 | C#C[C@]1(COP(=O)(O)OP(=O)(O)OP(=O)(O)O)O[C@@H](n2ccc(N)nc2=O)[C@@H](F)[C@@H]1O [Compound 35-TP]
831 | 200000 to 300000 | Nc1ccn([C@@H]2O[C@](CCl)(COP(=O)(O)OP(=O)(O)OP(=O)(O)O)[C@@H](O)[C@@H]2F)c(=O)n1 [Compound 40-TP]
81 | 200000 to 300000 | C=C[C@]1(COP(=O)(O)OP(=O)(O)OP(=O)(O)O)O[C@@H](n2ccc(N)nc2=O)C[C@@H]1O [Compound 43-TP]
430 | 200000 to 300000 | Nc1nc(=O)n([C@@H]2O[C@](CCl)(COP(=O)(O)OP(=O)(O)OP(=O)(O)O)[C@@H](O)[C@@H]2F)cc1F [Compound 67-TP]
